According to PubChem BioAssay AID248 (DTP/NCI, 2004):
Values joined by “and” are separate entries in the source; they are usually repeats but may differ in a detail not shown here. Equal values may be shown once. Toxic doses and inconclusive results are not listed. Rule as the data show it: active = T/C of 150% or more; inactive = T/C below 125%.

System: L1210 leukemia ip in BDF1 mice, survival T/C
Experiment: NCI In Vivo Anticancer Drug Screen. Data for tumor model L1210 Leukemia (intraperitoneal) in B6D2F1 (BDF1) mice
Settings: endpoint: mean survival time, higher = longer survival
How it was run: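 In this screen, tumor-bearing mice given compound are compared to those given vehicle, and their survival values are reported as a treated-to-control quotient.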

[1] = dose: 50.0 mg/kg/injection, schedule: Q01DX009 (ip), vehicle: Klucel (hydroxypropylcellulose) (HPC)
[2] = dose: 100.0 mg/kg/injection, schedule: Q01DX009 (ip), vehicle: Klucel (hydroxypropylcellulose) (HPC)
[3] = dose: 100.0 mg/kg/injection, schedule: Q04DX003 (ip), vehicle: Klucel (hydroxypropylcellulose) (HPC)
[4] = dose: 100.0 mg/kg/injection, schedule: Q04DX002 (ip), vehicle: Klucel (hydroxypropylcellulose) (HPC)
[5] = dose: 200.0 mg/kg/injection, schedule: Q04DX002 (ip), vehicle: Klucel (hydroxypropylcellulose) (HPC)
[6] = dose: 400.0 mg/kg/injection, schedule: Q04DX002 (ip), vehicle: Klucel (hydroxypropylcellulose) (HPC)
[7] = dose: 100.0 mg/kg/injection, schedule: Q01DX001 (ip), vehicle: saline
[8] = dose: 200.0 mg/kg/injection, schedule: Q01DX001 (ip), vehicle: saline
[9] = dose: 400.0 mg/kg/injection, schedule: Q01DX001 (ip), vehicle: saline
[10] = dose: 50.0 mg/kg/injection, schedule: Q01DX009 (ip), vehicle: water
[11] = dose: 100.0 mg/kg/injection, schedule: Q01DX009 (ip), vehicle: water
[12] = dose: 200.0 mg/kg/injection, schedule: Q01DX009 (ip), vehicle: water
[13] = dose: 100.0 mg/kg/injection, schedule: Q04DX003 (ip), vehicle: saline
[14] = dose: 200.0 mg/kg/injection, schedule: Q04DX003 (ip), vehicle: saline
[15] = dose: 400.0 mg/kg/injection, schedule: Q04DX003 (ip), vehicle: saline
[16] = dose: 200.0 mg/kg/injection, schedule: Q01DX009 (ip), vehicle: Klucel (hydroxypropylcellulose) (HPC)
[17] = dose: 400.0 mg/kg/injection, schedule: Q01DX009 (ip), vehicle: Klucel (hydroxypropylcellulose) (HPC)
[18] = dose: 200.0 mg/kg/injection, schedule: Q04DX003 (ip), vehicle: Klucel (hydroxypropylcellulose) (HPC)
[19] = dose: 100.0 mg/kg/injection, schedule: Q04DX003 (ip), vehicle: saline with Tween-80
[20] = dose: 200.0 mg/kg/injection, schedule: Q04DX003 (ip), vehicle: saline with Tween-80
[21] = dose: 400.0 mg/kg/injection, schedule: Q04DX003 (ip), vehicle: saline with Tween-80

Measured: T/C

CC(C)C1C(C)N1C(C)C (centres undefined)
inactive: dose: 25.0 mg/kg/injection, schedule: Q01DX009 (ip), vehicle: Klucel (hydroxypropylcellulose) (HPC) 107 % of control | [1] 100 % of control | [2] 104 % of control | [3] 95 % of control

N=Nc1c(O)[nH]c2ccccc12
inactive: [4] 92 % of control | [5] 96 % of control | [6] 92 % of control

CCCCCCCCCCCn1cnc2c(N)ncnc21
inactive: dose: 12.5 mg/kg/injection, schedule: Q01DX005 (ip), vehicle: other 93 % of control | dose: 25.0 mg/kg/injection, schedule: Q01DX005 (ip), vehicle: other 103 % of control | dose: 50.0 mg/kg/injection, schedule: Q01DX005 (ip), vehicle: other 92 % of control | dose: 100.0 mg/kg/injection, schedule: Q01DX005 (ip), vehicle: other 103 % of control | dose: 200.0 mg/kg/injection, schedule: Q01DX005 (ip), vehicle: other 104 % of control

Nc1ncnc2c1ncn2C1OCC(CO)C1O (centres undefined)
inactive: dose: 33.0 mg/kg/injection, schedule: Q01DX001 (ip), vehicle: carboxymethylcellulose (CMC) 97 % of control | dose: 66.5 mg/kg/injection, schedule: Q01DX001 (ip), vehicle: carboxymethylcellulose (CMC) 108 % of control | [7] 107 % of control | dose: 133.0 mg/kg/injection, schedule: Q01DX001 (ip), vehicle: carboxymethylcellulose (CMC) 97 % of control | [8] 101 % of control | [9] 107 % of control

CC(=O)c1cccc(NC(=O)COc2cc(Cl)c(Cl)cc2Cl)c1
inactive: [4] 106 % of control | [5] 113 % of control | [6] 102 % of control

CC(=O)OC1C(C)C2C=CC(=O)C2(C)CC2C1OC(=O)C2(O)CO (centres undefined)
inactive: dose: 25.0 mg/kg/injection, schedule: Q04DX002 (ip), vehicle: saline 116 % of control | dose: 50.0 mg/kg/injection, schedule: Q04DX002 (ip), vehicle: saline 113 % of control | dose: 100.0 mg/kg/injection, schedule: Q04DX002 (ip), vehicle: saline 95 % of control

Cn1cc(/C=C\C(=O)O)c2nccnc21
inactive: dose: 37.5 mg/kg/injection, schedule: Q01DX009 (ip), vehicle: water 95 % of control | [10] 100 % of control | dose: 75.0 mg/kg/injection, schedule: Q01DX009 (ip), vehicle: water 105 % of control | [11] 89 % of control | dose: 100.0 mg/kg/injection, schedule: Q04DX003 (ip), vehicle: water 108 % of control | dose: 150.0 mg/kg/injection, schedule: Q01DX009 (ip), vehicle: water 89 % of control | [12] 91 % of control | dose: 200.0 mg/kg/injection, schedule: Q04DX003 (ip), vehicle: water 106 % of control | dose: 300.0 mg/kg/injection, schedule: Q01DX009 (ip), vehicle: water 91 % of control

COc1ccccc1C(C#N)N1CCCN(C(C#N)c2ccccc2OC)C1c1cc(Cl)cc(Cl)c1O (centres undefined)
inactive: dose: 100.0 mg/kg/injection, schedule: Q01DX009 (ip), vehicle: saline 103 % of control | [13] 112 % of control | dose: 200.0 mg/kg/injection, schedule: Q01DX009 (ip), vehicle: saline 88 % of control | [14] 97 % of control | dose: 400.0 mg/kg/injection, schedule: Q01DX009 (ip), vehicle: saline 90 % of control | [15] 97 % of control

COc1cc2c(c3oc(=O)ccc13)C(=O)CC(C)(C)O2
inactive: [2] 95 % of control | [13] 96 % of control | [16] 91 % of control | [14] 102 % of control | [17] 95 % of control | [15] 98 % of control

COc1ccc(S(=O)(=O)NCCC#N)cc1NC(C)=O
inactive: dose: 100.0 mg/kg/injection, schedule: Q01DX001 (ip), vehicle: Klucel (hydroxypropylcellulose) (HPC) 95 % of control | dose: 100.0 mg/kg/injection, schedule: Q01DX009 (ip), vehicle: saline sonified 96 % of control | dose: 200.0 mg/kg/injection, schedule: Q01DX001 (ip), vehicle: Klucel (hydroxypropylcellulose) (HPC) 97 % of control | dose: 200.0 mg/kg/injection, schedule: Q01DX009 (ip), vehicle: saline sonified 96 % of control | dose: 400.0 mg/kg/injection, schedule: Q01DX001 (ip), vehicle: Klucel (hydroxypropylcellulose) (HPC) 97 % of control | dose: 400.0 mg/kg/injection, schedule: Q01DX009 (ip), vehicle: saline sonified 107 % of control

CCOC(=O)C1=C(Nc2ccccc2)CSC1
inactive: dose: 25.0 mg/kg/injection, schedule: Q01DX009 (ip), vehicle: water 100 % of control | [10] 101 % of control | [11] 94 % of control | [12] 102 % of control | dose: 400.0 mg/kg/injection, schedule: Q01DX009 (ip), vehicle: water 89 % of control

CN1CCCC1c1cccc([N+](=O)[O-])c1 (centres undefined)
inactive: dose: 100.0 mg/kg/injection, schedule: Q01DX001 (ip), vehicle: acetone 93 % of control

O=P(O)(c1cc(Cl)cc(Cl)c1)c1cc(Cl)cc(Cl)c1
inactive: dose: 18.8 mg/kg/injection, schedule: Q01DX001 (ip), vehicle: saline 96 % of control | dose: 37.5 mg/kg/injection, schedule: Q01DX001 (ip), vehicle: saline 96 % of control | dose: 75.0 mg/kg/injection, schedule: Q01DX001 (ip), vehicle: saline 96 % of control

CNC1(c2ccccc2)CC1
inactive: dose: 75.0 mg/kg/injection, schedule: Q04DX002 (ip), vehicle: saline 100 % of control | dose: 150.0 mg/kg/injection, schedule: Q04DX002 (ip), vehicle: saline 87 % of control

O=C(O)CN(CC(=O)O)c1ccccc1
inactive: dose: 50.0 mg/kg/injection, schedule: Q01DX001 (ip), vehicle: saline 103 % of control | [7] 92 % of control | [8] 103 % of control | [9] 95 % of control

NC(=O)c1ccc(Cl)c([N+](=O)[O-])c1
inactive: [3] 110 % of control | [18] 109 % of control

CCCCCCCCCCCCCCOC(=O)Cl
inactive: [2] 101 % of control | [16] 97 % of control | [17] 86 % of control

CN(C)C(=O)c1cccc(NCc2ccc3nc(N)nc(N)c3c2)c1
inactive: dose: 50.0 mg/kg/injection, schedule: Q01DX009 (ip), vehicle: saline with Tween-80 93 % of control | dose: 100.0 mg/kg/injection, schedule: Q01DX009 (ip), vehicle: saline with Tween-80 96 % of control and 88 % of control | [19] 97 % of control | dose: 200.0 mg/kg/injection, schedule: Q01DX009 (ip), vehicle: saline with Tween-80 96 % of control | [20] 92 % of control | [21] 92 % of control

O=C1NC2(CCCCC2)C(=O)N1CCN(CCCl)CCCl
inactive: dose: 1.3 mg/kg/injection, schedule: Q01DX009 (ip), vehicle: saline 96 % of control | dose: 2.0 mg/kg/injection, schedule: Q01DX009 (ip), vehicle: saline 107 % of control | dose: 4.1 mg/kg/injection, schedule: Q01DX009 (ip), vehicle: saline 117 % of control | dose: 6.25 mg/kg/injection, schedule: Q01DX009 (ip), vehicle: saline 119 % of control | dose: 9.3 mg/kg/injection, schedule: Q01DX009 (ip), vehicle: saline 124 % of control | dose: 16.0 mg/kg/injection, schedule: Q04DX003 (ip), vehicle: saline 122 % of control | dose: 25.0 mg/kg/injection, schedule: Q01DX009 (ip), vehicle: saline 106 % of control

O=C(Oc1ccc(Cl)cc1)c1ccc(Cl)cc1
inactive: [1] 101 % of control | [2] 94 % of control | [3] 101 % of control | [16] 95 % of control | [18] 99 % of control | dose: 400.0 mg/kg/injection, schedule: Q04DX003 (ip), vehicle: Klucel (hydroxypropylcellulose) (HPC) 92 % of control

CCC(=O)Nc1cccc(OC(=O)NC(C)CC)c1 (centres undefined)
inactive: [19] 93 % of control | [20] 97 % of control | [21] 92 % of control

CCOC(=O)C(=O)Cc1nc2ccccc2[nH]c1=O
inactive: [1] 94 % of control | [2] 91 % of control | [16] 94 % of control

O=c1oc2ccccc2c(O)c1Oc1ccccc1
inactive: [13] 98 % of control | [14] 91 % of control | [15] 87 % of control
